This note sets out measurements from ChEMBL document CHEMBL5331071, “Structure-activity relationship study of amidobenzimidazole derivatives as stimulator of interferon genes (STING) agonists” (Eur J Med Chem, 2023).

Bounds are passed on as bounds.

A short description of data set [1]: Cytotoxicity against human THP1-Dual KO-STING cells assessed as inhibition of cell growth by MTS assay. The data set is classed as functional, cell-based.
Data set [2] addresses T1, Stimulator of interferon genes protein (Homo sapiens, UniProt Q86WV6). In words: Agonist activity at STING in human THP1-Dual cells incubated for 20 hrs by Quanti-luc reagent based assay. The class given is cell-based.
In data set [3] the target is T1, Stimulator of interferon genes protein. In words: Agonist activity at STING in human […] KO-STING cells incubated for 20 hrs by Quanti-luc reagent based assay. The class given is cell-based, THP1-Dual KO-STING.
For a further data set, the system named is THP1-Dual. In words: Cytotoxicity against human THP1-Dual habouring STING assessed as inhibition of cell growth by MTS assay. The class given is functional, cell-based.
Data set [4] can be described thus: Stability in rat plasma assessed as residual of initial concentration at 1 hr. The class given is ADME, cell-free. The conditions noted are these: read-out: Stability.

T1 sequence (Q86WV6 whole entry): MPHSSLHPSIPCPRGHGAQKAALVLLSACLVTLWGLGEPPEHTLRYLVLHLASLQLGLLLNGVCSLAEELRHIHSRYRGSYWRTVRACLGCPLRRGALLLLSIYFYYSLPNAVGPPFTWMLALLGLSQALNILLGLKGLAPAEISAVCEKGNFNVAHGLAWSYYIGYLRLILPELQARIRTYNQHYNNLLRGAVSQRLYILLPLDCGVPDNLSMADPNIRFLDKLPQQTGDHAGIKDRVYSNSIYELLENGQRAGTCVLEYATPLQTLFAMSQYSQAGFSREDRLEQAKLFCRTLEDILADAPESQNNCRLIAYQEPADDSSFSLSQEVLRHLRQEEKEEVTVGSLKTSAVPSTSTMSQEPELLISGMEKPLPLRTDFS

For the compound `CCn1nc(C)cc1C(=O)Nc1nc2cc(C(N)=O)cc(OC)c2n1C/C=C/CNC(=O)c1cnc(C(F)(F)F)cn1`, the IC50 (in data set [1]; in the data set on THP1-Dual) was more than 100 µM throughout. Moreover, the EC50 in data set [2] and in data set [3] was more than 100 µM each time.

Consider `CCn1nc(C)cc1C(=O)Nc1nc2cc(C(N)=O)cc(OC)c2n1NCCCC(=O)NCc1ccc(F)cc1F`, for which the IC50 (in data set [1]; with THP1-Dual) was more than 100 µM each time. The EC50 in data set [2] is 3.57 µM; in data set [3] it was more than 100 µM.

On to `CCn1nc(C)cc1C(=O)Nc1nc2cc(C(N)=O)cc(OC)c2n1C/C=C/CNC(=O)c1ccoc1`, for which the IC50 (in data set [1]; in the data set with THP1-Dual) was more than 100 µM in each case. Moreover, the EC50 in data set [2] and in data set [3] was more than 100 µM each time.

`CCn1nc(C)cc1C(=O)Nc1nc2cc(C(N)=O)cc(OC)c2n1C/C=C/CNC(=O)c1ccccn1`: the IC50 (in data set [1]; in the data set on THP1-Dual) was more than 100 µM each time. Moreover, the 50% effective concentration (EC50) in data set [2] and in data set [3] was more than 100 µM each time.

`CCn1nc(C)cc1C(=O)Nc1nc2cc(C(N)=O)cc(OC)c2n1NCCCNC(=O)NCc1ccccc1`: the 50% inhibitory concentration (IC50) (in data set [1]; in the data set on THP1-Dual) was more than 100 µM each time. In addition, the EC50 is 8.52 µM in data set [2] and more than 100 µM in data set [3].

Consider `CCn1nc(C)cc1C(=O)Nc1nc2cc(C(N)=O)cc(OC)c2n1C/C=C/Cn1c(C(F)(F)F)nc2cc(C(N)=O)ccc21`, for which the IC50 (in data set [1]; in the data set on THP1-Dual) was more than 100 µM in each case. Moreover, the EC50 in data set [2] and in data set [3] was more than 100 µM each time.

`CCn1nc(C)cc1C(=O)Nc1nc2cc(C(N)=O)cc(OC)c2n1C/C=C/CNC1CCC(N(C)C)CC1` (stereo unspecified): the IC50 (in data set [1]; in the data set with THP1-Dual) was more than 100 µM in each case. Further, the EC50 in data set [2] and in data set [3] was more than 100 µM in each case.

As to `CCn1nc(C)cc1C(=O)Nc1nc2cc(C(N)=O)cc(OC)c2n1NCCCC(=O)NCc1ccc(-c2ccccc2)cc1`, the IC50 (in data set [1]; with THP1-Dual) was more than 100 µM in each case. Further, the EC50 in data set [2] is 40.9 µM; in data set [3], more than 100 µM.

As to `CCn1nc(C)cc1C(=O)Nc1nc2cc(C(N)=O)cc(OC)c2n1CCCN1CCC(C(=O)Nc2ccc3ccccc3c2)CC1`, the IC50 (in data set [1]; with THP1-Dual) was more than 100 µM throughout. The EC50 in data set [2] and in data set [3] was more than 100 µM throughout.

On to `CCn1nc(C)cc1C(=O)Nc1nc2cc(C(N)=O)cc(OC)c2n1C/C=C/CNC1CCN(C)CC1`, for which the IC50 (in data set [1]; with THP1-Dual) was more than 100 µM each time. Further, the EC50 in data set [2] and in data set [3] was more than 100 µM in each case.

In the case of `CCn1nc(C)cc1C(=O)Nc1nc2cc(C(N)=O)cc(OC)c2n1C/C=C/CNC(=O)Nc1ccc2ccccc2c1`, the IC50 (in data set [1]; in the data set on THP1-Dual) was more than 100 µM in each case. In addition, the EC50 in data set [2] and in data set [3] was more than 100 µM in each case.

As to `CCn1nc(C)cc1C(=O)Nc1nc2cc(C(N)=O)cc(OCC3COC3)c2n1NCCCC(=O)NCc1ccc(F)cc1`, the half-inhibitory concentration (IC50) (in data set [1]; with THP1-Dual) was more than 100 µM throughout. For the same compound, the EC50 in data set [2] is 7.13 µM; in data set [3] it was more than 100 µM.

Take `CCn1nc(C)cc1C(=O)Nc1nc2cc(C(N)=O)cc(OC)c2n1C/C=C/CNC(=O)c1ccc(F)cc1`: the IC50 (in data set [1]; with THP1-Dual) was more than 100 µM each time. The EC50 in data set [2] and in data set [3] was more than 100 µM throughout.

With `CCn1nc(C)cc1C(=O)Nc1nc2cc(C(N)=O)cc(OC)c2n1C/C=C/CNC1CCOCC1`, the IC50 (in data set [1]; in the data set with THP1-Dual) was more than 100 µM in each case. For the same compound, the EC50 in data set [2] and in data set [3] was more than 100 µM each time.

On to `CCn1nc(C)cc1C(=O)Nc1nc2cc(C(N)=O)cc(OC)c2n1NCCCC(=O)NCc1ccccc1F`, for which the IC50 (in data set [1]; in the data set with THP1-Dual) was more than 100 µM each time. The EC50 was 4.17 µM in data set [2] and more than 100 µM in data set [3].

On to `CCn1nc(C)cc1C(=O)Nc1nc2cc(C(N)=O)cc(OC)c2n1CCCNC(=O)c1ccc2ccccc2c1`, for which the results for the IC50 (in data set [1]; with THP1-Dual) were more than 100 µM and 10.8 µM, respectively. Also, the EC50 was 0.93 µM in data set [2] and more than 100 µM in data set [3].

Consider `CCn1nc(C)cc1C(=O)Nc1nc2cc(C(N)=O)cc(OC)c2n1C/C=C/CNC(=O)c1cc(C(F)(F)F)cc(C(F)(F)F)c1`, for which the IC50 (in data set [1]; in the data set on THP1-Dual) was more than 100 µM each time. The EC50 in data set [2] and in data set [3] was more than 100 µM throughout.

For `CCn1nc(C)cc1C(=O)Nc1nc2cc(C(N)=O)cc(OC)c2n1C/C=C/CNC(=O)Cc1ccc(C(F)(F)F)cc1`, the IC50 (in data set [1]; in the data set on THP1-Dual) was more than 100 µM in each case. In addition, the EC50 in data set [2] and in data set [3] was more than 100 µM throughout.

Consider `CCn1nc(C)cc1C(=O)Nc1nc2cc(C(N)=O)cc(OC)c2n1CCCC(=O)Nc1ccccc1`, for which the IC50 (in data set [1]; in the data set on THP1-Dual) was more than 100 µM in each case. The concentration giving a half-maximal response (EC50) in data set [2] was 9.81 µM; in data set [3] it was more than 100 µM.

As to `CCn1nc(C)cc1C(=O)Nc1nc2cc(C(N)=O)cc(OC)c2n1NCCCC(=O)NCc1ccc(Cl)cc1C(F)(F)F`, the IC50 (in data set [1]; in the data set with THP1-Dual) was more than 100 µM in each case. In addition, the EC50 in data set [2] and in data set [3] was more than 100 µM in each case.

As to `CCn1nc(C)cc1C(=O)Nc1nc2cc(C(N)=O)cc(OCCCN3CCOCC3)c2n1NCCCC(=O)NCc1ccc(F)cc1`, the IC50 (in data set [1]; in the data set on THP1-Dual) was more than 100 µM each time. Further, the figures for the EC50 in data set [2] and in data set [3] were 9.73 µM and more than 100 µM, respectively.

As to `CCn1nc(C)cc1C(=O)Nc1nc2cc(C(N)=O)cc(OC)c2n1CCCNC(=O)c1ccccc1`, the IC50 (in data set [1]; in the data set with THP1-Dual) was more than 100 µM each time. Besides, the EC50 in data set [2] and in data set [3] was more than 100 µM in each case.

With `CCn1nc(C)cc1C(=O)Nc1nc2cc(C(N)=O)cc(OC)c2n1C/C=C/Cn1c(C)nc2cc(C(N)=O)ccc21`, the IC50 (in data set [1]; in the data set with THP1-Dual) was more than 100 µM each time. Further, the EC50 in data set [2] and in data set [3] was more than 100 µM each time.

`CCn1nc(C)cc1C(=O)Nc1nc2cc(C(N)=O)cc(OC)c2n1C/C=C/CNC(=O)Cc1cnccn1`: the IC50 (in data set [1]; in the data set on THP1-Dual) was more than 100 µM in each case. Besides, the EC50 in data set [2] and in data set [3] was more than 100 µM each time.

Turning to `CCn1nc(C)cc1C(=O)Nc1nc2cc(C(N)=O)cc(OCCCN3CCOCC3)c2n1NCCCNC(=O)c1ccc2ccccc2c1`, the IC50 in data set [1] is 28.1 µM; in the data set on THP1-Dual, 18.6 µM. The EC50 in data set [2] was 2.19 µM; in data set [3] it was more than 100 µM.

As to `CCn1nc(C)cc1C(=O)Nc1nc2cc(C(N)=O)cc(OCCCOC)c2n1NCCCC(=O)NCc1ccc(F)cc1`, the IC50 (in data set [1]; in the data set on THP1-Dual) was more than 100 µM in each case. Besides, the figures for the EC50 in data set [2] and in data set [3] were 2.96 µM and more than 100 µM, respectively.

`CCn1nc(C)cc1C(=O)Nc1nc2cc(C(N)=O)cc(OC)c2n1C/C=C/CNC(=O)c1ccc2ccccc2c1`: the IC50 (in data set [1]; in the data set with THP1-Dual) was more than 100 µM each time. Besides, the EC50 in data set [2] and in data set [3] was more than 100 µM each time.

For the compound `CCn1nc(C)cc1C(=O)Nc1nc2cc(C(N)=O)cc(OC)c2n1NCCCC(=O)NCc1cc(F)cc(F)c1`, the IC50 (in data set [1]; with THP1-Dual) was more than 100 µM throughout. The EC50 in data set [2] is 5.14 µM; in data set [3], more than 100 µM.

Regarding `CCn1nc(C)cc1C(=O)Nc1nc2cc(C(N)=O)cc(OC)c2n1C/C=C/CNC(=O)c1ccc2ncccc2c1`, the IC50 (in data set [1]; in the data set on THP1-Dual) was more than 100 µM each time. Besides, the EC50 in data set [2] and in data set [3] was more than 100 µM throughout.

For the compound `CCn1nc(C)cc1C(=O)Nc1nc2cc(C(N)=O)cc(OCCCOC)c2n1CCCNC(=O)OCc1ccccc1`, in data set [4], the remaining at 1 h turned out to be 36.4%.

As for `CCn1nc(C)cc1C(=O)Nc1nc2cc(C(N)=O)cc(OC)c2n1C/C=C/CNC(=O)C1CCCC1`, the IC50 (in data set [1]; with THP1-Dual) was more than 100 µM throughout. For the same compound, the EC50 in data set [2] and in data set [3] was more than 100 µM in each case.
